This passage reports EC50 and IC50 results from patent US20240245658A1, “TAAR1 AND SEROTONIN MODULATORS, AND PHARMACEUTICAL COMPOSITIONS, AND METHODS OF USE THEREOF” (Sunovion Pharmaceuticals Inc., priority 2021, published 2024).

Common to all, as to type: cell-based
For assay [1], the target named is T1, human TAAR1 receptors (Homo sapiens, UniProt Q96RJ0).
T1 construct: host or cells: CHO-K1
T1 sequence (Q96RJ0 1-339): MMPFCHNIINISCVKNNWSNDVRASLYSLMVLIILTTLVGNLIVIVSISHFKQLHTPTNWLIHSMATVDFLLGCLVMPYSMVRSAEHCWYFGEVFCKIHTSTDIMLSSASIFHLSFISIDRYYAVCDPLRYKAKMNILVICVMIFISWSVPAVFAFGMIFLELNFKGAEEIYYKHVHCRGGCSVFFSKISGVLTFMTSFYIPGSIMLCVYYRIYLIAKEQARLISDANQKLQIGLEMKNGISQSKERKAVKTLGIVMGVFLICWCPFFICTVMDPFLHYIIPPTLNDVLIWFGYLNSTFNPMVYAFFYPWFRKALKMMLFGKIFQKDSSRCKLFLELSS
The assay is described as follows: TAAR1 Agonism Assay: cAMP HTRF assay for Gs coupled receptor TAAR1 (Euroscreen FAST-0987C). Conditions: CHO-K1 cells expressing human TAAR1, cAMP HTRF. How it is done: Dose response curves were performed in parallel with the reference compound, tyramine.
For the TAAR1 agonist test (performed in a 384 well plate): 5 μl of cells (about 3,000 cells) were mixed with 5 μl of the test compound diluted in assay buffer and then incubated for about 30 minutes at about room temperature. After addition of the lysis buffer containing cAMP-d2 and anti-cAMP cryptate detection reagents, plates were incubated for about a 1-hour incubation at about room temperature, and fluorescence ratios were measured according to the manufacturer specifications, with the HTRF (Homogeneous Time Resolved Fluorescence) kit (cAMP Gs dynamic kit, Cisbio Bioassays, 62AM4PEJ).
(§1) Compounds were tested at the following nanomolar concentrations, in duplicate: 0.3 nM, 1 nM, 3 nM, 10 nM, 30 nM, 100 nM, 300 nM, 1,000 nM, 3,000 nM, and 10,000 nM.
(TR-FRET usually uses a lanthanide donor and a delayed reading to cut background.)

Assay [2] deals with T2, human 5-HT7 receptor (Homo sapiens, UniProt P34969).
T2 construct: host or cells: CHO-K1
T2 sequence (P34969 whole entry): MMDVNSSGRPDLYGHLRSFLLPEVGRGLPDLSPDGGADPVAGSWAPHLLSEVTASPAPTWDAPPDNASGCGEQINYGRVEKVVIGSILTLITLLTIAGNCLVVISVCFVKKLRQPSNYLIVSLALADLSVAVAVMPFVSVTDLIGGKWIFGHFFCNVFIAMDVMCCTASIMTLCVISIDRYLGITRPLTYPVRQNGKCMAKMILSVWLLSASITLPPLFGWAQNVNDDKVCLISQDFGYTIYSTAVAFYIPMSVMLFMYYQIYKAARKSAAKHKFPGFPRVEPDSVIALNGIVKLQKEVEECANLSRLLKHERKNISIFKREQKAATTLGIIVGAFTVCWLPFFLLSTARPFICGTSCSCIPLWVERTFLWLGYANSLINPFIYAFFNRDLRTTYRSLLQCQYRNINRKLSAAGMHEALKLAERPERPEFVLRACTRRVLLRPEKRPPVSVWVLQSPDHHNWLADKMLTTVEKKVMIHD
Description: 5HT7 Antagonism Assay (Euroscreen FAST-0499C), cAMP HTRF. The conditions noted are these: CHO-K1 cells expressing human 5-HT7, reference agonist at EC80, cAMP HTRF. The procedure: 5HT7 Antagonism Assay Protocol (Euroscreen FAST-0499C)
CHO-K1 cells expressing the human 5-HT7 receptor, grown prior to the test in media without antibiotic, were detached by gentle flushing with PBS-EDTA (5 mM EDTA), recovered by centrifugation and resuspended in assay buffer (Krebs-Ringer HEPES buffer: 5 mM KCl, 1.25 mM MgSO4, 124 mM NaCl, 25 mM HEPES, 13.3 mM Glucose, 1.25 mM KH2PO4, 1.45 mM CaCl2), 0.5 g/l BSA, supplemented with 1 mM IBMX).
Dose response curves were performed in parallel with reference compounds (e.g., 5-carboxamidotryptamine (5-CT)).
For antagonist testing in a 384 well plate: 5 μl of cells (3000 cells) were mixed with 5 μl of a mix of test compound and reference agonist (for a final assay concentration corresponding to its EC80) diluted in assay buffer. The plates were then incubated for about 30 minutes at about room temperature. After addition of the lysis buffer containing cAMP-d2 and anti-cAMP cryptate detection reagents, plates were incubated for about 1 hour at about room temperature, and fluorescence ratios were measured according to the manufacturer's specifications (HTRF kit: cAMP Gs dynamic kit, Cisbio Bioassays, 62AM4PEJ).
as §1

The target in assay [3] is T3, human 5-HT2A receptor (Homo sapiens, UniProt P28223).
T3 construct: host or cells: CHO-K1
T3 sequence (P28223 whole entry): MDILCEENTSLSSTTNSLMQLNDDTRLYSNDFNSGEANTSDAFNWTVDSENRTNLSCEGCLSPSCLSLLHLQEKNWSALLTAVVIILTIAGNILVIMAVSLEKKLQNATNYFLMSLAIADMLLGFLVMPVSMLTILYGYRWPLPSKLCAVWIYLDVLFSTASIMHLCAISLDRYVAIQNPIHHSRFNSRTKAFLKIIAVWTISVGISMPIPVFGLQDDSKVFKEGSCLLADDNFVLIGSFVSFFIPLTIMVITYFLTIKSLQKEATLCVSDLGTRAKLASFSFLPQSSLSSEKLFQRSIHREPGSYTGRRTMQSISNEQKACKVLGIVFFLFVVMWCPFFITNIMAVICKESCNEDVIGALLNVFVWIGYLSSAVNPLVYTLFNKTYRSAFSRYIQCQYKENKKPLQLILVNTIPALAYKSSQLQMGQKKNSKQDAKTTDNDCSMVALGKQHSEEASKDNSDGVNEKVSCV
Description: 5HT2A Antagonism Assay (Euroscreen FAST-05051), IP-One HTRF. The procedure:
5HT2A Antagonism Assay Protocol (Euroscreen FAST-05051)
CHO-K1 cells expressing the human 5-HT2A receptor grown to mid-log phase in culture media without antibiotics, were detached with PBS-EDTA, centrifuged, and resuspended in the IP-One Gq kit (Cisbio Bioassays, 62IPAPEC) stimulation buffer.
For antagonist testing in a 384 well plate: 5 μl of cells (20,000 cells) were mixed with 5 μl of a mix of test compound and reference agonist (for a final assay concentration corresponding to its EC80) diluted in stimulation buffer. The plate was incubated for 60 minutes at 37° C. in a humidified atmosphere of 95% air with 5% CO2, then 5 μL of IP1-d2 and anti-IP1 cryptate detection reagents were added to each well, the plates were incubated for about 1 hour at about room temperature. Fluorescence ratios are measured according to the manufacturer's specification (IP-One Gq kit (Cisbio Bioassays, 62IPAPEC).
Dose response curves were performed in parallel with reference compounds (e.g., α-methyl-5-HT. Compounds were tested at the following nanomolar concentrations, in duplicate: 0.3 nM, 1 nM, 3 nM, 10 nM, 30 nM, 100 nM, 300 nM, 1,000 nM, 3,000 nM, and 10,000 nM

Where [4] appears, read: 5-HT2A (IC50), CHO-K1 cells expressing human 5-HT2A, reference agonist at EC80, IP-One.
Where [5] appears, read: read-out: 5-HT2A (IC50), CHO-K1 cells expressing human 5-HT2A, reference agonist at EC80, IP-One.
[6] abbreviates: CHO-K1 cells expressing human 5-HT2A, reference agonist at EC80, IP-One, read-out: 5-HT2A (IC50).

Read-outs that look alike come from different tables or passages of the source.

Consider `CNCC1Cc2ccccc2Oc2cccc(F)c21` (single isomer, unassigned) [Compound 106, (R*)-(9-fluoro-10,11-dihydrodibenzo[b,f]oxepin-10-yl)-N-methylmethanamine], for which, in assay [1], the EC50 is less than 1000 nM. The values for the IC50 in assay [2] and in assay [3] (setting [4]) were no less than 10000 nM and less than 1000 nM, respectively.

`CNCC1Cc2ccccc2Oc2c(F)cccc21` (single isomer, unassigned) [Compound 102, (R*)-(6-fluoro-10,11-dihydrodibenzo[b,f]oxepin-10-yl)-N-methylmethanamine]: in assay [1], the EC50 is less than 1000 nM. Besides, the IC50 was no less than 10000 nM in assay [2] and less than 1000 nM in assay [3] (setting [4]).

As for `NCC1Cc2ccc(Cl)cc2Oc2cccnc21` (single isomer, unassigned) [Compound 124, (S*)-(7-chloro-10,11-dihydrobenzo[6,7]oxepino[3,2-b]pyridin-11-yl)methanamine], the EC50 in assay [1] is less than 1000 nM. For the same molecule, the IC50 in assay [2] was no less than 10000 nM; in assay [3] (setting [4]), 1000 to 10000 nM.

For the molecule `CNC[C@H]1c2ncccc2Oc2ccccc2[C@H]1C` (stereo in doubt) [Compound 116, ((10S*,11S*)-10-methyl-10,11-dihydrobenzo[6,7]oxepino[3,2-b]pyridin-11-yl)-N-methylmethanamine], the EC50 in assay [1] was less than 1000 nM. The values for the IC50 in assay [2] and in assay [3] (setting [4]) were no less than 10000 nM and 1000 to 10000 nM, respectively.

Regarding `CNCC1Cc2cccc(F)c2Oc2ccccc21` (single isomer, unassigned) [Compound 87, (S*)-(4-fluoro-10,11-dihydrodibenzo[b,f]oxepin-10-yl)-N-methylmethanamine], the EC50 in assay [1] is less than 1000 nM. The IC50 in assay [2] is 1000 to 10000 nM; in assay [3] (setting [5]), less than 1000 nM.

Turning to `CNCC1Cc2ccncc2Oc2ccccc21` (single isomer, unassigned) [Compound 24, (S*)-1-(5,6-dihydrobenzo[6,7]oxepino[2,3-c]pyridin-6-yl)-N-methylmethanamine], in assay [1], the EC50 was greater than 10000 nM. Also, the IC50 was 1000 to 10000 nM in assay [2] and less than 1000 nM in assay [3] (setting [5]).

In assay [1], `NCC1Cc2c(F)cccc2Oc2cccnc21` (single isomer, unassigned) [Compound 136, (S*)-(9-fluoro-10,11-dihydrobenzo[6,7]oxepino[3,2-b]pyridin-11-yl)methanamine] had an EC50 of less than 1000 nM. Besides, the IC50 is no less than 10000 nM in assay [2] and 1000 to 10000 nM in assay [3] (setting [4]).

In the case of `NCC1Cc2ccc(F)cc2Oc2ccccc21` (single isomer, unassigned) [Compound 89, (S*)-(3-fluoro-10,11-dihydrodibenzo[b,f]oxepin-10-yl)methanamine], the EC50 in assay [1] was less than 1000 nM. Moreover, the values for the IC50 in assay [2] and in assay [3] (setting [4]) were no less than 10000 nM and less than 1000 nM, respectively.

In turn, `NCC1Cc2c(F)cncc2Oc2ccccc21` (single isomer, unassigned) [Compound 153, (R*)-(4-fluoro-5,6-dihydrobenzo[6,7]oxepino[2,3-c]pyridin-6-yl)methanamine] came in with an EC50 in assay [1] of less than 1000 nM. In addition, the values for the IC50 in assay [2] and in assay [3] (setting [4]) were no less than 10000 nM and less than 1000 nM, respectively.

`NCC1Oc2ccccc2Oc2ncccc21` (single isomer, unassigned) [Compound 48, (S*)-(5H-benzo[2,3][1,4]dioxepino[5,6-b]pyridin-5-yl)methanamine] yielded an EC50 in assay [1] of 1000 to 10000 nM. Also, the IC50 in assay [2] is no less than 10000 nM; in assay [3] (setting [6]), greater than 10000 nM.

Regarding `NCC1Oc2ccccc2Oc2ncccc21` (single isomer, unassigned) [Compound 47, (R*)-(5H-benzo[2,3][1,4]dioxepino[5,6-b]pyridin-5-yl)methanamine], in assay [1], the EC50 fell in the range of 1000 to 10000 nM. For the same molecule, the IC50 in assay [2] was no less than 10000 nM; in assay [3] (setting [6]), greater than 10000 nM.

`NCC1Cc2cccc(F)c2Oc2ccccc21` (single isomer, unassigned) [Compound 85, (S*)-(4-fluoro-10,11-dihydrodibenzo[b,f]oxepin-10-yl)methanamine]: the EC50 in assay [1] was less than 1000 nM. The figures for the IC50 in assay [2] and in assay [3] (setting [4]) were no less than 10000 nM and 1000 to 10000 nM, respectively.

By EC50 is commonly meant the concentration at which the effect is half-maximal. Usually IC50 stands for the concentration that inhibits the measured activity by half.
